Test results published in PubChem BioAssay AID328 (DTP/NCI, 2004).
Values joined by “and” are separate entries in the source; they are usually repeats but may differ in a detail not shown here. Equal values may be shown once. Inconclusive results and toxic doses are left out.

Test system: BDF1 mice, P388 leukemia ip, median survival T/C
Test: NCI In Vivo Anticancer Drug Screen. Data for tumor model P388 Leukemia (intraperitoneal) in B6D2F1 (BDF1) mice
Conditions: endpoint: median survival time, higher = longer survival
In short: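 Reported as T/C, where T is the survival measurement in dosed animals and C the same measurement in vehicle controls.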

[1] = dose: 100.0 mg/kg/injection, schedule: Q01DX009 (ip), vehicle: saline with Tween-80
[2] = dose: 200.0 mg/kg/injection, schedule: Q01DX009 (ip), vehicle: saline with Tween-80
[3] = dose: 50.0 mg/kg/injection, schedule: Q04DX003 (ip), vehicle: saline
[4] = dose: 50.0 mg/kg/injection, schedule: Q01DX009 (ip), vehicle: saline with Tween-80

SMILES: CCOC(=O)CCN(CC(=O)OCC)C(C)C
- T/C [1]: 104 % of control
- T/C (dose: 100.0 mg/kg/injection, schedule: Q04DX003 (ip), vehicle: saline with Tween-80): 95 % of control
- T/C [2]: 104 % of control
- T/C (dose: 200.0 mg/kg/injection, schedule: Q04DX003 (ip), vehicle: saline with Tween-80): 104 % of control
- T/C (dose: 400.0 mg/kg/injection, schedule: Q01DX009 (ip), vehicle: saline with Tween-80): 109 % of control
- T/C (dose: 400.0 mg/kg/injection, schedule: Q04DX003 (ip), vehicle: saline with Tween-80): 95 % of control

SMILES: OC1CCCC2CCC[N-]C12.OC1CCCC2CCC[N-]C12.[Mn+2] (stereo not drawn)
- T/C (dose: 6.25 mg/kg/injection, schedule: Q01DX009 (ip), vehicle: DMSO): 107 % of control
- T/C (dose: 12.5 mg/kg/injection, schedule: Q01DX009 (ip), vehicle: DMSO): 110 % of control
- T/C (dose: 25.0 mg/kg/injection, schedule: Q01DX009 (ip), vehicle: DMSO): 108 % of control
- T/C (dose: 50.0 mg/kg/injection, schedule: Q01DX009 (ip), vehicle: DMSO): 123 % of control
- T/C (dose: 100.0 mg/kg/injection, schedule: Q01DX009 (ip), vehicle: DMSO): 100 % of control

SMILES: O=C(O)C1OC(n2cc(F)c(=O)[nH]c2=O)CC1O (stereo not drawn)
- T/C [3]: 108 % of control
- T/C (dose: 100.0 mg/kg/injection, schedule: Q04DX003 (ip), vehicle: saline): 116 % of control
- T/C (dose: 200.0 mg/kg/injection, schedule: Q04DX003 (ip), vehicle: saline): 106 % of control
- T/C (dose: 300.0 mg/kg/injection, schedule: Q04DX003 (ip), vehicle: saline): 108 % of control

SMILES: C1CCC2(CC1)OCCO2
- T/C (dose: 25.0 mg/kg/injection, schedule: Q01DX009 (ip), vehicle: saline with Tween-80): 87 % of control
- T/C [4]: 97 % of control
- T/C [1]: 100 % of control
- T/C [2]: 106 % of control

SMILES: O=c1c(Br)cccc(CN2CCOCC2)c1O
- T/C (dose: 12.5 mg/kg/injection, schedule: Q04DX002 (ip), vehicle: saline with Tween-80): 101 % of control
- T/C (dose: 25.0 mg/kg/injection, schedule: Q04DX002 (ip), vehicle: saline with Tween-80): 96 % of control
- T/C (dose: 50.0 mg/kg/injection, schedule: Q04DX002 (ip), vehicle: saline with Tween-80): 101 % of control and 106 % of control

SMILES: O=[N+]([O-])c1ccc2c(c1)[nH]c1ccccc12
- T/C [4]: 113 % of control
- T/C [1]: 115 % of control
- T/C [2]: 114 % of control

SMILES: Cn1c(C(Cl)Cl)nc2ccccc2c1=O
- T/C (dose: 12.5 mg/kg/injection, schedule: Q01DX009 (ip), vehicle: Klucel (hydroxypropylcellulose) (HPC)): 100 % of control
- T/C (dose: 25.0 mg/kg/injection, schedule: Q01DX009 (ip), vehicle: Klucel (hydroxypropylcellulose) (HPC)): 100 % of control
- T/C (dose: 50.0 mg/kg/injection, schedule: Q01DX009 (ip), vehicle: Klucel (hydroxypropylcellulose) (HPC)): 95 % of control
- T/C (dose: 75.0 mg/kg/injection, schedule: Q01DX009 (ip), vehicle: Klucel (hydroxypropylcellulose) (HPC)): 100 % of control
- T/C (dose: 115.0 mg/kg/injection, schedule: Q01DX009 (ip), vehicle: Klucel (hydroxypropylcellulose) (HPC)): 114 % of control
- T/C (dose: 170.0 mg/kg/injection, schedule: Q01DX009 (ip), vehicle: Klucel (hydroxypropylcellulose) (HPC)): 95 % of control

SMILES: O=S(=O)(O)c1ccc(-c2ccc(S(=O)(=O)O)cc2)cc1 (tested in a mixture with another compound)
- T/C (dose: 21.0 mg/kg/injection, schedule: Q04DX003 (ip), vehicle: saline): 200 % of control
- T/C (dose: 33.0 mg/kg/injection, schedule: Q04DX003 (ip), vehicle: saline): 270 % of control
- T/C [3]: 300 % of control
- T/C (dose: 110.0 mg/kg/injection, schedule: Q04DX003 (ip), vehicle: saline): 300 % of control

SMILES: O=C(/C=N/O)c1cccnc1
- T/C (dose: 25.0 mg/kg/injection, schedule: Q04DX003 (ip), vehicle: saline sonified): 100 % of control
- T/C (dose: 50.0 mg/kg/injection, schedule: Q04DX003 (ip), vehicle: saline sonified): 95 % of control
- T/C (dose: 100.0 mg/kg/injection, schedule: Q04DX003 (ip), vehicle: saline sonified): 100 % of control

SMILES: COc1cccc(/C=C/[N+](=O)[O-])c1
- T/C (dose: 15.0 mg/kg/injection, schedule: Q01DX009 (ip), vehicle: saline with Tween-80): 108 % of control
- T/C (dose: 20.0 mg/kg/injection, schedule: Q01DX009 (ip), vehicle: Klucel (hydroxypropylcellulose) (HPC)): 107 % of control
- T/C (dose: 30.0 mg/kg/injection, schedule: Q01DX009 (ip), vehicle: Klucel (hydroxypropylcellulose) (HPC)): 115 % of control
- T/C (dose: 60.0 mg/kg/injection, schedule: Q01DX009 (ip), vehicle: saline with Tween-80): 100 % of control

SMILES: COc1cc2ccc3c(c2cc1OC)C(=O)CNC3C (stereo not drawn)
- T/C (dose: 3.13 mg/kg/injection, schedule: Q01DX009 (ip), vehicle: saline): 104 % of control
- T/C (dose: 3.13 mg/kg/injection, schedule: Q04DX003 (ip), vehicle: saline): 109 % of control
- T/C (dose: 6.25 mg/kg/injection, schedule: Q01DX009 (ip), vehicle: saline): 100 % of control
- T/C (dose: 6.25 mg/kg/injection, schedule: Q04DX003 (ip), vehicle: saline): 100 % of control
- T/C (dose: 12.5 mg/kg/injection, schedule: Q01DX009 (ip), vehicle: saline): 100 % of control
- T/C (dose: 12.5 mg/kg/injection, schedule: Q04DX003 (ip), vehicle: saline): 109 % of control
